Key:
[1] = system: Mice with Type II Collagen-Induced Arthritis; assay: Effect of N-acetylhydroxyproline in mice with type II collagen-induced arthritis (arthritis score, preventive feeding); type: in vivo, DBA/1J mice; conditions: for Score of arthritis: mean±SE, N=20, score 0-16 points
Text: Effect of N-acetylhydroxyproline in Mice with Type II Collagen-Induced Arthritis
It is known that arthritis is induced in DBA/1J mice (Charles River) by administering type II collagen two times.
As the first administration of type II collagen, a solution prepared by mixing an equal amount of type II collagen [Collagen Gijutsu Kenshu-Kai (MCK)] and Freund's complete adjuvant (Iatron) and emulsifying the mixture using a homogenizer was intradermally administered to 6-week old male DBA/1J mice (Charles River) in an amount of 100 μl per one animal.
At day 21 after the first administration of type II collagen, as the second administration of type II collagen, a solution prepared by mixing an equal amount of type II collagen and Freund's complete adjuvant and emulsifying the mixture using a homogenizer in a similar manner was intradermally administered to the animals in an amount of 100 μl per one animal. In this manner, arthritis was induced in mice.
Starting on the day of the first administration of type II collagen, the mice were bred by feeding a powder feed, CE-2 (CLEA Japan), containing the addition of 0.02, 0.1 or 0.5% (hereinafter % refers to wt %) of N-acetylhydroxyproline (Kyowa Hakko Kogyo). As control, a group of mice were fed with the powder feed CE-2 containing no additive. At days 23, 27, 30, 33, 36, 40 and 42 after the first administration of type II collagen, the extent of the onset of arthritis was scored according to the following indices.
Scoring was carried out by applying 0-4 points with respect to […] of mice: 0: no symptom; 1: swelling of one finger or swelling (slight) of ankles; 2: swelling of 1-3 fingers or swelling of ankles; 3: swelling of 3-5 fingers plus swelling of ankles; and 4: swelling of all the fingers plus swelling of ankles. Each mouse was scored the total of the points of 4 paws, namely, 0-16 points. Twenty mice each were subjected to observation with respect to each of the conditions.
In the table, the figures show the score under different treatment conditions, which is given as mean±SE (N=20).
In the table, “no treatment” means no treatment with type II collagen.

[2] = system: animal model for arthritis; conditions: administration after induction of arthritis; cited from earlier work
[3] = system: systemic injury of ear and tail; chondral injury at joints; conditions: in vivo; cited from earlier work

CC(=O)N1C[C@H](O)C[C@H]1C(=O)O [N-Acetylhydroxyproline, N-acetylhydroxyproline]
Rising of the score of arthritis compared with feed containing no additive ([1]; 0.02% in powder feed CE-2): suppressive tendency
Score of arthritis ([1]; 0.02% in powder feed CE-2, day 23): 0.0 ± 0.0
Score of arthritis ([1]; 0.02% in powder feed CE-2, day 27): 4.2 ± 0.8
Score of arthritis ([1]; 0.02% in powder feed CE-2, day 30): 7.6 ± 0.9
Score of arthritis ([1]; 0.02% in powder feed CE-2, day 33): 9.3 ± 0.8
Score of arthritis ([1]; 0.02% in powder feed CE-2, day 36): 9.7 ± 0.9
Score of arthritis ([1]; 0.02% in powder feed CE-2, day 40): 10.0 ± 0.8
Score of arthritis ([1]; 0.02% in powder feed CE-2, day 42): 10.1 ± 0.9
Score of arthritis ([1]; 0.02% in powder feed CE-2 from first collagen administration, day 0): 0.0 ± 0.0
Rising of the score of arthritis compared with feed containing no additive ([1]; 0.1% in powder feed CE-2): suppressive tendency
Score of arthritis ([1]; 0.1% in powder feed CE-2, day 23): 0.1 ± 0.1
Score of arthritis ([1]; 0.1% in powder feed CE-2, day 27): 4.6 ± 0.9
Score of arthritis ([1]; 0.1% in powder feed CE-2, day 30): 7.3 ± 1.0
Score of arthritis ([1]; 0.1% in powder feed CE-2, day 33): 8.3 ± 1.1
Score of arthritis ([1]; 0.1% in powder feed CE-2, day 36): 8.6 ± 1.0
Score of arthritis ([1]; 0.1% in powder feed CE-2, day 40): 8.5 ± 1.0
Score of arthritis ([1]; 0.1% in powder feed CE-2, day 42): 8.7 ± 1.0
Score of arthritis ([1]; 0.1% in powder feed CE-2 from first collagen administration, day 0): 0.0 ± 0.0
Scores of arthritis compared with control (feed containing no addition) ([1]; 0.5% in powder feed CE-2): significantly low
Score of arthritis ([1]; 0.5% in powder feed CE-2, day 23): 0.0 ± 0.0
Score of arthritis ([1]; 0.5% in powder feed CE-2, day 27): 3.8 ± 0.7
Score of arthritis ([1]; 0.5% in powder feed CE-2, day 30): 5.9 ± 0.9
Score of arthritis ([1]; 0.5% in powder feed CE-2, day 33): 7.7 ± 0.8
Score of arthritis ([1]; 0.5% in powder feed CE-2, day 36): 8.1 ± 0.8
Score of arthritis ([1]; 0.5% in powder feed CE-2, day 40): 8.4 ± 0.7
Score of arthritis ([1]; 0.5% in powder feed CE-2, day 42): 8.5 ± 0.7
Score of arthritis ([1]; 0.5% in powder feed CE-2 from first collagen administration, day 0): 0.0 ± 0.0
Onset of arthritis ([1]; taken previously, before the onset of arthritis): could be suppressed
Aggravation of arthritis [2]: can prevent aggravation of arthritis
Effect on chondral injury at joints [3]: no effect
Effect on systemic injury of ear and tail [3]: shows a therapeutic effect
